Reference: patent publication US6284523A, “Process for biodegradation of a xenobiotic” (priority 1998, dated 2001)
Read-outs that look alike come from different tables or passages of the source.

Legend:
[1] = test system: Pseudomonas putida ATCC 11172; assay: Biodegradation of solvents (consumed as substrate); format: cell-based; conditions: Table 1; Yes/No
Description: (§1) Pseudomonas putida available under ATCC accession number 11172, an organism known to degrade phenol by the meta pathway (Bayly et al.^17) was used in this Example. The organism was maintained on medium previously described (Fujita et al.^11), containing 5 g/L glucose and 100 mg/L phenol as carbon sources. EDTA was also added to the medium at a 1:1 molar ratio with ferric chloride to prevent the formation of a precipitate. Cultures were grown in 125 mL Erlenmeyer flasks containing 50 mL of maintenance medium in a shaker bath at 30° C. The flasks were allowed to incubate for 36 hours prior to their use as inoculum for fermentation. A total of 160 mL of the cultured medium was centrifuged, the supernatant discarded and the cell fraction resuspended in the remaining 40 mL of medium. The 40 mL aliquot was then used to inoculate the fermentor for the batch and fed batch experiments.
The biodegradability of the solvents was assessed as part of the solvent selection process. 5 mL of each solvent was added to 125 mL Erlenmeyer flasks containing 50 mL of seeded maintenance medium containing 250 mg/L phenol but no glucose. Solvent was not added to one flask, which was used as a control. In addition, 5 mL of corn oil was added to one flask, to serve as a positive control. Flasks were placed on the shaker bath as above for 7 days. The cell density in each flask was measured every 24 hours. The net change in cell density was then compared to the change in cell density seen in the control and the positive control.

[2] = Determination of partition coefficients of phenol between solvent and medium buffer; format: physicochemical
Description: A stock solution of medium buffer containing 5 g/L of phenol was prepared, and 5 mL samples of the medium buffer were then contacted with 5 mL of solvent using the Mixxor™ contacting system. The contacted samples were then centrifuged, and the organic phase was aspirated and discarded. […] A red colour was developed in the samples, and the absorbance of the solution was measured relative to a blank using a Bausch and Lomb Spectronic 2000™ spectrophotometer. The partition coefficient for phenol in each organic-aqueous system was then be determined by mass balance. Any solvents that formed emulsions with the aqueous phase were eliminated from the solvent screening process, due to the difficulties associated with calculating partition coefficients for these systems.

[3] = test system: Pseudomonas putida ATCC 11172
Description: To allow for complete biodegradation of the substrate, the carbon-free medium formulation was doubled in concentration, in order to provide adequate nutrients for the fermentation. The fermentor was initially aerated to 0.25 vvm and agitated at 200 rpm, but during the fermentation aeration was increased to 0.5 vvm, and agitation to 250 rpm, to increase the mass transfer of oxygen to the cells. A dissolved oxygen electrode was used to monitor the level of oxygen in the aqueous phase. The pH of the system was controlled at 6.8 using 1N KOH.
(§3) Samples were taken from the organic and aqueous phases every twelve hours throughout the fermentations. Samples were centrifuged prior to analysis to separate the cell fraction, aqueous phase and organic layer. […] The organic samples were contacted with medium buffer using the Mixxor™ contacting system. The resulting mixture was then centrifuged, and the organic phase aspirated off. Phenol levels in the buffer were then determined as above, and the experimentally determined partition coefficient was used to calculate the concentration of phenol present in the organic phase. Cell density was assessed as described above. Consumption of base was also monitored.

[4] = Description: (§2) Fermentation was carried out in a 2 L New Brunswick Scientific BioFlo reactor modified for aeration with a fritted glass tube. The fermentor was operated at 30° C., agitated at 200 rpm and aerated at 0.25 vvm, based on the aqueous phase volume. The pH was controlled at 6.8 using 2N KOH. The fermentor was heat sterilized with 1 L of medium (containing no carbon source) already in place. The sterilized medium was then inoculated, and 500 mL of the organic solvent, loaded with 4 g of phenol, was added, as depicted in the schematic diagram shown in FIG. 1. A control fermentor was also prepared in the same manner, but with a cell free aqueous phase, to test for possible volatilization of phenol due to air stripping.
The pH was controlled at 6.8 using 2N KOH.

[5] = test system: Pseudomonas putida ATCC 11172; remark: listed apart in the source
Description: as §3

[6] = test system: Pseudomonas putida ATCC 11172; remark: listed apart in the source
Description: as §1
The fermentor was prepared as above, but with a second glass sparger added to improve aeration. A propeller was added to the stir shaft of the fermentation vessel, in an attempt to reduce foaming. The fermentation was allowed to progress normally, but when the phenol concentration in the organic phase reached 2 g/L, 250 ml of the organic phase was removed, and spiked with approximately 9 g of phenol. The organic sample was then returned to the reactor, bringing the overall concentration of phenol in the organic phase back to 20 g/L. This was done twice, at 72 hours and at 120 hours. Nutrient spikes (the standard carbon-free medium formulation dissolved in 50 mL of water, instead of 1 L) were also added at 96 hours and at 132 hours, to avoid nutrient depletion in the aqueous phase.
Samples were taken from the organic and aqueous phases every twelve hours throughout the fermentations. Samples were centrifuged prior to analysis to separate the cell fraction, aqueous phase and organic layer. Phenol concentrations in the aqueous phase were assayed using the 4-aminoantipyrine method as described above. The organic samples were contacted with medium buffer using the Mixxor™ contacting system. The resulting mixture was then centrifuged, and the organic phase aspirated off. Phenol levels in the buffer were then determined as above, and the experimentally determined partition coefficient was used to calculate the concentration of phenol present in the organic phase. Cell density was assessed as described above. Consumption of base was also monitored.

[7] = test system: Pseudomonas putida ATCC 11172; remark: listed apart in the source
Description: The microorganism used for these experiments was Pseudomonas putida available under ATCC accession number 11172. The organism was maintained in liquid and solid culture, transferred weekly. The maintenance medium formulation used was as previously described (Fujita et al.^11), with 5 g/L glucose and 100 mg/L phenol provided as carbon sources. Cultures were grown in 125 mL flasks containing 50 mL of medium in a shaker bath at 30° C. for 36 hours prior to inoculation of the fermentor. A total of 160 mL of inoculum from 4 flasks was concentrated by centrifugation, the supernatant decanted and the cell fraction resuspended in the remaining 40 mL of medium to prepare the final inoculum.
as §2
Cell density was estimated by measuring the optical density of samples taken from the aqueous phase at 650 nm. Phenol concentrations in the aqueous phase were estimated using the 4-aminoantipyrine method (Der Yang et al.^12) and a Bausch and Lomb Spectronic 2000 spectrophotometer. The samples were centrifuged prior to analysis in order to remove the cell fraction. The concentration of phenol in the organic phase was measured by contacting a sample taken from the organic phase with medium buffer using a Mixxora contacting system. The resulting mixture was centrifuged, the organic phase aspirated, and the buffer analyzed using the 4-aminoantipyrine method, as mentioned above. The amount of phenol present in the organic phase was then calculated by mass balance using an […] partition coefficient.

[8] = test system: Pseudomonas putida; conditions: cited from earlier work
[9] = 28 g fed batch, initial 10 g of phenol

## CCCCCCCCCCO [1-decanol]
[1]
  Consumed as Substrate: Yes

## CCCCCCCCCO [1-nonanol]
[1]
  Consumed as Substrate: Yes

## CCCCCCCCCCCO [1-undecanol]
[1]
  Consumed as Substrate: Yes
[2]
  Partition Coefficient: 20.8

## CCCCCCCCC(C)O (centres unmarked) [2-decanol]
[1]
  Consumed as Substrate: No
[2]
  Partition Coefficient: 22.6

## CCCCCCCCC(C)=O [2-decanone]
[1]
  Consumed as Substrate: No

## CCCCCCCC(C)O (centres unmarked) [2-nonanol]
[1]
  Consumed as Substrate: No
[2]
  Partition Coefficient: 28.3

## CCCCCCCCCC(C)=O [2-undecanone]
[1]
  Consumed as Substrate: No

## Oc1ccccc1 [phenol]
[3]; 10 g batch system, cells in aqueous phase only
  yield coefficient: 0.15 g/g
[3]; 10 g phenol in organic phase
  initial concentration of phenol in the aqueous phase: approximately 420 mg/L
[3]; 10 g phenol, batch
  lag phase: about 24 hours
[3]; the batch system, based on aqueous phase volume
  volumetric phenol consumption rate: approximately 135 mg/L-h
[4]; cell free fermentor, 48 hours, Example 1
  loss of phenol to volatilization: no loss of phenol to volatilization
[4]; control (cell-free) fermentor, Example 2
  loss of phenol due to air stripping: no phenol was lost due to air stripping
[5]; 4 g phenol batch, cells in aqueous phase only
  yield coefficient: 0.20 g cells/g phenol
[5]; 4 g phenol in organic phase
  initial concentration of phenol in the aqueous phase: 168 mg/L
[5]; 4 g phenol, batch
  initial lag phase: 12 h
[6]; 28 g fed batch system, cells in aqueous phase only
  yield coefficient: 0.12 g/g
[6]; [9]
  exponential growth phase: 48 h
  lag phase: 24 h
[6]; fed batch mode
  lag phase of cell growth for the spikes of phenol: eliminates the lag phase
[6]; fed batch system
  time to degrade 28 g of phenol: about 165 hours
  volumetric consumption rate: 175 mg/L-h
[6]; fed batch, time from start of fermentation
  time to consumption of the last 10 g of phenol to exhaustion: under 168 hours
[7]; 4 g phenol in 500 mL 2-undecanone, 1 L aqueous
  initial concentration of phenol in the aqueous phase: approximately 168 mg/L
[7]; 4 g phenol, 2-undecanone, batch
  time to consumption of phenol to exhaustion: over 48 hours
[7]; 4 g phenol, batch
  initial lag phase: 12 h
[7]; based on aqueous phase volume, 4 g phenol, batch
  volumetric phenol consumption rate: approximately 80 mg/L-h
[7]; cells in aqueous phase only, 4 g phenol
  yield coefficient: approximately 0.21 g cells produced/g phenol consumed
[8]; Hill et al., g cells/g phenol
  typical yield coefficient on phenol: 0.52 ± 0.08 g/g
[8]; Hill et al., printed without unit in Example 1
  yield coefficient: 0.52+/-0.08
[8]; Kotturi et al.
  typical inhibitory value of phenol: 500 mg/L
[8]; highest literature value, batch system, Fujita et al.
  volumetric phenol consumption rate: 37.5 mg/L-h
